Measured values taken from US20040037806A1, “Aldosterone blocker therapy to prevent or treat inflammation-related disorders” (Pharmacia Corporation, priority 2002, published 2004).
Entries after “also recorded” stand apart in the source; their conditions may differ.

What was measured:
Assay type in all cases: in vivo, rat
[1] = Assay C: histopathologic analysis, semi-quantitative myocardial injury score 0 to 4; conditions: 7, 14 and 30 days; aldosterone+salt alone or with eplerenone 100 mg/kg/day
Description: The procedure of Assay B was expanded upon in a further study. […] Myocardial tissue from animals in each treatment group was examined after 7, 14, or 30 days of treatment. […] Lesions were preceded by the expression and progressive upregulation of proinflammatory molecules. […] Prior to surgery the animals were individually weighed and placed in one of the following groups: […] Potassium chloride supplementation was added to the saline solution in order to prevent the potential hypokalemia associated with aldosterone excess. Treatment At the time of the surgery, an Alzet 2002 osmotic minipump (Alza Corp., Palo Alto, Calif.) containing either vehicle (9% ethanol/87% propylene glycol/4% dH2O) or 1.0 mg/mL d-aldosterone (Sigma Chemical, St. Louis, Mo.) was inserted subcutaneously at the nape of the neck. Aldosterone was administered at a dose of 0.75 µg/hour. […] Animals were sacrificed from each group (n=8-13) after 7, 14, or 30 days of treatment. The equatorial regions of the heart were routinely processed into paraffin with an automated tissue processor (Hypercenter XP, Shandon/Lipshaw Inc., Pittsburgh, Pa.) and embedded into fresh paraffin apical side down (Shandon Embedding Center, Shandon/Lipshaw Inc.). […] Semi-quantification of myocardial injury was performed as described previously with minor modifications (7). […]

osteopontin = test: Assay A: osteopontin immunostaining of hearts; conditions: angiotensin II-infused, saline-drinking Wistar rats; eplerenone 100 mpk; aldosterone replacement in adrenalectomized rats
[2] = Assay C: body weight, ventricle weights, tibia length (myocardial hypertrophy); conditions: for Ventricular hypertrophy (absolute ventricular weights, ventricular weight to tibia length ratios): aldosterone+salt alone or with eplerenone 100 mg/kg/day, 7, 14, 30 days; for Body weight: aldosterone+salt at days 7, 14 and 30 vs vehicle+salt, eplerenone 100 mg/kg/day effect at day 30
Description: The procedure of Assay B was expanded upon in a further study. […] Myocardial tissue from animals in each treatment group was examined after 7, 14, or 30 days of treatment. […] Lesions were preceded by the expression and progressive upregulation of proinflammatory molecules. […] Male Sprague-Dawley rats, weighing 230 to 250 g, (Harlan Sprague-Dawley Industries, Indianapolis, Ind.) were housed in a room 12-hours light/12-hours dark daily cycle at an ambient temperature of 22±1° C. (n=96). Animals were allowed one week to adjust after arrival and had free access to TEKLAD 22/5 rodent diet (Harlan TEKLAD, Madison, Wis.) and tap water until the initiation of the experiment. Prior to surgery the animals were individually weighed and placed in one of the following groups: […] Potassium chloride supplementation was added to the saline solution in order to prevent the potential hypokalemia associated with aldosterone excess. Treatment At the time of the surgery, an Alzet 2002 osmotic minipump (Alza Corp., Palo Alto, Calif.) containing either vehicle (9% ethanol/87% propylene glycol/4% dH2O) or 1.0 mg/mL d-aldosterone (Sigma Chemical, St. Louis, Mo.) was inserted subcutaneously at the nape of the neck. Aldosterone was administered at a dose of 0.75 µg/hour. […] Animals were sacrificed from each group (n=8-13) after 7, 14, or 30 days of treatment. At the cessation of each experimental time point, the animals were anesthetized with pentobarbital (65 mg/kg i.p., Sigma Chemical, St. Louis Mo.) and weighed with a Mettler PM6000 balance (Mettler-Toledo, Inc., Hightstown, N.J.). The abdominal cavity was opened to expose the abdominal aorta. A 16-gauge needle was inserted into the abdominal aorta and the animal was exsanguinated into a 12 cc syringe. The blood sample was transferred immediately into glass serum collection tubes (Terumo Medical Corp., Elkton, Md.) for drug level analysis. The samples were placed on wet ice until sample collection was complete and centrifuged for 15 min at 3000 rev/min at 4° C. Following exsanguination, hearts and kidneys were isolated, removed, rinsed in cold phosphate-buffered saline, and blotted dry. Kidneys were immediately bifurcated through the long axis with a razor blade and placed in 10% neutral buffered formalin (NBF, Richard-Allen Scientific, Kalamazoo, Mich.). For the hearts, the right ventricle (RV) was cut away from the left ventricle (LV), both ventricles were weighed using a Mettler AE163 balance (Mettler-Toledo, Inc., Hightstown, N.J.), and the RV was placed in 10% NBF. […] Final wet trimming was completed after 3-4 days fixation where a second 2 mm coronal slab was removed for hydroxyproline analysis and a third 2mm slab was removed from the equatorial region for histology.

Row | SMILES | Myocardial tissue damage (histopathology) [1] | Osteopontin expression in the heart (immunostaining) (osteopontin) | Final Body Weight ([2]; 7 days of treatment, uninephrectomized Sprague-Dawley rats, 1% NaCl-0.3% KCl, aldosterone infusion alone or with eplerenone 100 mg/kg/day, individual rats and group Mean) [g] | Ventricular hypertrophy (absolute ventricular weights, ventricular weight to tibia length ratios) [2] | Body weight [2]
1 | COC(=O)[C@@H]1CC2=CC(=O)CC[C@]2(C)[C@@]23O[C@@H]2C[C@@]2(C)[C@@H](CC[C@@]24CCC(=O)O4)[C@H]13 [eplerenone] | markedly attenuated myocardial injury at all time points | prevented osteopontin expression | 286 | did not impact absolute ventricular weights or ventricular weight to tibia length ratios | significantly attenuated
2 | C[C@]12CCC(=O)C=C1CC[C@@H]1[C@@H]2[C@@H](O)C[C@]2(C=O)[C@@H](C(=O)CO)CC[C@@H]12 [aldosterone] | No vascular or myocardial lesions; also recorded: focal arterial and myocardial alterations were observed starting at 14 days | restored osteopontin expression | – | Significant left and right ventricular hypertrophy | significantly lower
